≈ marks a conversion by molar mass, not a printed value. Read-outs that look alike come from different tables or passages of the source.
Key:
[1] = system: L. (L.) major promastigotes; assay: In vitro antileishmanial activity (CellTiter-Glo luminescent cell viability); format: cell-based, Leishmania (L.) major; parameters: key to Activity class against promastigotes based on IC50: very active (IC50 < 10 μg/mL); active (IC50 > 10 < 50 μg/mL); moderately active (IC50 > 50 < 100 μg/mL); inactive (IC50 > 100 μg/mL); conditions: for IC50: Leishmania major; for Selectivity index (SI): SI = CC50 (L929)/IC50 (L. (L.) major promastigotes)
Method: Protozoan isolates were obtained from the Parasite Bank at the Department of Parasitology, Faculty of Medicine, Manisa Celal Bayar University. The subsequent procedure for acquiring promastigotes was as follows: the major L. (L.) isolate was classified as MHOM/TR/2014/CBL-LM. It was preserved in liquid nitrogen and defrosted by placing it in a water bath at 37 °C for two minutes after its removal from preservation. Subsequent to melting, the NNN medium was inoculated and incubated in an incubator at 25 °C. The reproductive condition of the protozoan was assessed by making coverslips and slides twice daily. Following parasite replication, the cells were transferred from the NNN medium to the RPMI-1640 medium (Gibco, Paisley, Scotland, UK) to facilitate further proliferation. Before application, 10% fetal calf serum, 1% penicillin/streptomycin, and 1% gentamicin were added to a widely available commercial medium. Distribution was conducted using 5 milliliters per 25 mL flask, and cultivation was performed by adding 50 μL of the cultured promastigotes. Flasks designated for cultivation were incubated in a 25 °C incubator. Parasite reproduction was observed, and the medium was supplemented every 2–3 days. Subsequently, the number of promastigotes was quantified using a Thoma chamber, yielding a concentration of 10^6 promastigotes/mL, and a suspension comprising promastigotes was formulated.
The synthesized compounds were dissolved in DMSO to a final concentration of no more than 0.5% [51]. Based on preliminary studies, the K1 compound was prepared at concentrations ranging from 0.23 µg/mL to 30 µg/mL, while the K2, K3, and K4 compounds were prepared at concentrations ranging from 1.95 µg/mL to 250 µg/mL.
The assay was conducted using 96-well flat-bottom microtiter plates, with three replicate wells per experimental group. The groups included a blank control, parasite control (no treatment), drug control (Amphotericin B), and test groups for compounds K1, K2, K3, and K4. Each well was filled with 100 µL of RPMI-1640 medium supplemented with 10% fetal calf serum, 1% penicillin/streptomycin, and 1% gentamicin. For the four test compounds and Amphotericin B, 100 µL of the respective solution was added to the first well of each group. The contents were mixed thoroughly using an automated dispensing pipette, followed by serial dilutions down the respective wells. Promastigote suspensions, previously counted using a Thoma counting chamber, were added at 100 µL per well to all wells except those designated as blanks. No parasites were added to the blank wells. The plates were then covered with lids, sealed with parafilm, and incubated at 25 °C. Following incubation, cell viability was assessed using the CellTiter-Glo® Luminescent Cell Viability Assay Kit (Promega, Madison, WI, USA). This experimental procedure was repeated in three independent experiments conducted at different time points.
It is calculated as the ratio of the cytotoxic concentration (CC50) required to cause 50% cell death in mammalian cells to the inhibitory concentration (IC50) required to kill 50% of the parasites. The selectivity index values of benzimidazole derivatives for L. (L.) major promastigotes were determined using the following equation: SI = CC50/IC50 [55].

L929 cell line = assay: Cytotoxicity test (MTT); format: cell-based, mouse; conditions: L929 cells
Method: (§1) The cytotoxic effects of the benzimidazole derivatives and AmpB were determined using the L929 cell line (American Type Culture Collection, Manassas, VA, USA). In total, 100 µL of the cell suspension (10^5/mL) was added to each well comprising sterile, flat-bottomed 96-well microplates. The microplates were then incubated at 37 °C in a 5% CO2 incubator for 24 h. Cytotoxic activity was evaluated using the same concentrations applied in the antileishmanial activity assessment. For compound K1, serial dilutions were prepared in the range of 0.23–30 µg/mL, and for the other compounds, in the range of 1.95–250 µg/mL. These dilutions were added to a second microplate, and 100 µL from each well was transferred to the first plate. The plates were then incubated under the same conditions for an additional 48 h.
(§2) Cell viability was determined using the 3-(4.5-dimethylthiazol-2-yl)-2.5-diphenyltetrazolium bromide) (Sigma, Kawasaki, Japan) method. After the completion of the incubation period, all media from the microplates, both containing and lacking the active ingredient, were discarded. Subsequently, 100 μL of MTT suspension was added to each well, and the plates were incubated in a CO2 incubator at 37 °C for four hours. At the end of the incubation period, all wells in the microplates were emptied, and 100 μL of pure DMSO (to dissolve the formazan crystals) was pipetted into each well and incubated under the same conditions for 30 min. Absorbance was measured at 570 nm using a spectrophotometer (Biotek 800TS, Winooski, VT, USA). CC50 values were determined using GraphPad Prism version 8.4.2. All experiments were performed in triplicate, with three independent trials and two replicates per trial.

Cytotoxicity test (MTT) = format: cell-based, mouse; conditions: L929 mouse fibroblast cells, 48 h, MTT
Method: as §1, §2

[2] = system: L. (L.) major promastigotes; assay: Morphological alterations of promastigotes by Giemsa staining; format: cell-based, Leishmania (L.) major; conditions: serial dilutions 0.23 µg/mL to 30 µg/mL, 48 h
Method: The morphological alterations caused by compound K1 at various concentrations in L. (L.) major promastigotes were assessed at the 48 h mark utilizing Giemsa staining (Figure 3).
Figure 3 Control (a) and serial dilutions of the K1 compound (ranging from 0.23 µg/mL to 30 µg/mL) (b–l) in wells containing L. (L.) major promastigotes (100× magnification).

[3] = L. (L.) major promastigotes (MHOM/TR/2014/CBL-LM), 25 °C, CellTiter-Glo, read-out: IC50 (antileishmanial activity)

Row | Compound | IC50 [1, 3] [µg/mL] | Cytotoxic effect on L929 cells (L929 cell line) | CC50 at 48 h (Cytotoxicity test (MTT)) [µg/mL] | Selectivity index (SI) [1] | Morphological alterations in promastigotes [2] | Activity class against promastigotes based on IC50 ([1]; L. (L.) major promastigotes) | IC50 ([1]; L. (L.) major promastigotes, read-out: Activity class against promastigotes based on IC50) [µg/mL]
1 | C[C@@H]1[C@H](O)[C@@H](C)/C=C/C=C/C=C/C=C/C=C/C=C/C=C/[C@H](O[C@@H]2O[C@H](C)[C@@H](O)[C@H](N)[C@@H]2O)C[C@@H]2O[C@](O)(C[C@@H](O)C[C@@H](O)[C@H](O)CC[C@@H](O)C[C@@H](O)CC(=O)O[C@H]1C)C[C@H](O)[C@H]2C(=O)O [AmpB, Amphotericin B, reference compound] | 0.274 (≈ 0.297 µM) | – | – | – | – | – | –
2 | CC(=O)c1nc2ccccc2n1CC(=O)c1cccc(Cl)c1 [K1] | 0.679 (≈ 2.17 µM) | not observed | 250 (≈ 799 µM) | 368.25 | decreases in the number of promastigotes and morphological structural disruptions were observed | – | –
3 | Cc1nc(-c2cccc(Cl)c2)cn2c1nc1ccccc12 [K2] | 8.89 (≈ 30.3 µM) | – | 63 (≈ 214 µM) | 7.08 | – | – | –
4 | Cc1nc(-c2ccccc2)cn2c1nc1ccccc12 [K3] | 45.1 (≈ 174 µM) | – | 0.56 (≈ 2.16 µM) | 0.012 | – | active | –
5 | Cc1nc(-c2ccc(Cl)cc2)cn2c1nc1ccccc12 [K4] | 69.2 (≈ 236 µM) | – | 292 (≈ 994 µM) | 4.22 | – | – | 50 to 100 (≈ 170 to 340 µM)

Source: article PMC12197429, “Evaluation of the Antileishmanial Activity of Some Benzimidazole Derivatives Using In Vitro and In Silico Techniques” (Veterinary Sciences, 2025)
